# Where two headings read alike, the source gives them in different places.
# What was measured:
# Format in all cases: cell-based
# SREBP-2 = SREBP-2 expression in cultured primary human hepatocytes; settings: procedure of Example 6, read-out: SREBP-2 mRNA inhibition (EC50)
# In short: (§1)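 Primary human hepatocytes in culture exposed to a range of HPN-01 derivative concentrations; SREBP-1 and SREBP-2 mRNA expression then measured to assess inhibition.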
# Huh7 cells = test: LD content in Huh7 cells pre-treated with insulin, Oil-Red-O staining, absorbance OD 540 nm; settings: procedure of Example 3, read-out: LD content inhibition (EC50)
# In short: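 Huh7 cells, mock-treated or pre-treated with 1 mM insulin, were then exposed to compound at the indicated amounts. Lipid droplets stained with Oil Red O and quantified by absorbance at OD 540 nm.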
# SREBP-1 = SREBP-1 expression in cultured primary human hepatocytes; settings: procedure of Example 6, read-out: SREBP-1 mRNA inhibition (EC50)
# In short: as §1
# [1] = Homo sapiens, Huh-7, Huh7 cells
Molecule,EC50 (Huh7 cells; [1]),"EC50 (SREBP-2; Homo sapiens, Hepatocyte)","EC50 (SREBP-1; Homo sapiens, Hepatocyte)",EC50 (SREBP-2),EC50 (Huh7 cells; Huh7 cells),EC50 (SREBP-1),EC50 (SREBP-2; Hepatocyte),EC50 (SREBP-1; Hepatocyte)
"NC(=O)c1cc(C#CCOC(=O)c2ccccn2)cc(-c2ccc(S(N)(=O)=O)cc2)c1N [HPN-01221, 3-(6-amino-5-carbamoyl-4′-sulfamoyl-[1,1′-biphenyl]-3-yl)prop-2-yn-1-yl picolinate]",770 nM,3470 nM,1670 nM,,,,,
"(E)-2-amino-5-(3-((4-fluorophenethyl)amino)-3-oxoprop-1-en-1-yl)-4′-sulfamoyl-[1,1′-biphenyl]-3-carboxamide [HPN-01132]",,,,1550 nM,70 nM,360 nM,,
"NC(=O)c1cc(-c2ccc(Cl)cc2)cc(Oc2cccc(S(N)(=O)=O)c2)c1N [HPN-01412, 4-amino-4′-chloro-5-(3-sulfamoylphenoxy)-[1,1′-biphenyl]-3-carboxamide]",2070 nM,6110 nM,3090 nM,,,,,
"NC(=O)c1cc(/C=C/C(=O)OCCc2ccccc2)cc(-c2ccc(S(N)(=O)=O)cc2)c1N [HPN-01123, phenethyl (E)-3-(6-amino-5-carbamoyl-4′-sulfamoyl-[1,1′-biphenyl]-3-yl)acrylate]",890 nM,4450 nM,3450 nM,,,,,
"CCOc1ccc(NC(=O)/C=C/c2cc(C(N)=O)c(N)c(-c3ccc(S(N)(=O)=O)cc3)c2)cc1 [HPN-01129, (E)-2-amino-5-(3-((4-ethoxyphenyl)amino)-3-oxoprop-1-en-1-yl)-4′-sulfamoyl-[1,1′-biphenyl]-3-carboxamide]",290 nM,3100 nM,1690 nM,,,,,
"COc1ccccc1C(=O)OCC#Cc1cc(C(N)=O)c(N)c(-c2ccc(S(N)(=O)=O)cc2)c1 [HPN-01217, 3-(6-amino-5-carbamoyl-4′-sulfamoyl-[1,1′-biphenyl]-3-yl)prop-2-yn-1-yl 2-methoxybenzoate]",180 nM,2070 nM,1030 nM,,,,,
"CCCC(=O)Oc1cccc(/C=C/c2cc(C(N)=O)c(N)c(-c3ccc(S(N)(=O)=O)cc3)c2)c1 [HPN-01111, (E)-3-(2-(6-amino-5-carbamoyl-4′-sulfamoyl-[1,1′-biphenyl]-3-yl)vinyl)phenyl butyrate]",750 nM,2440 nM,2080 nM,,,,,
"COc1ccc(C#Cc2cc(C(N)=O)c(N)c(-c3ccc(S(N)(=O)=O)cc3)c2)cc1 [HPN-01204, 2-amino-5-((4-methoxyphenyl)ethynyl)-4′-sulfamoylbiphenyl-3-carboxamide]",1010 nM,4590 nM,4180 nM,,,,,
"NC(=O)c1cc(-c2ccc(Cl)cc2)cc(-c2ccc(-c3c[nH]nn3)cc2)c1N [HPN-01421, 4′-amino-4-chloro-4″-(1H-1,2,3-triazol-4-yl)-[1,1′:3′,1″-terphenyl]-5′-carboxamide]",750 nM,2220 nM,1510 nM,,,,,
"CC(=O)Nc1ccc(-c2cc(-c3ccc(Cl)cc3)cc(C(N)=O)c2N)cc1 [HPN-01407, 4″-acetamido-4’-amino-4-chloro-[1,1′:3′,1″-terphenyl]-5′-carboxamide]",1070 nM,9690 nM,5410 nM,,,,,
"furan-2-ylmethyl (E)-3-(6-amino-5-carbamoyl-4′-sulfamoyl-[1,1′-biphenyl]-3-yl)acrylate [HPN-01124]",,,,3250 nM,670 nM,1860 nM,,
"NC(=O)c1cc(-c2ccc(Cl)cc2)cc(-c2ccc(OP(=O)(O)O)cc2)c1N [HPN-01405, 6′-amino-5′-carbamoyl-4″-chloro-[1,1′:3′,1″-terphenyl]-4-yl dihydrogen phosphate]",760 nM,,,,,,3980 nM,2500 nM

# The next lines start with results.
EC50 (Huh7 cells; [1]),Molecule,"EC50 (SREBP-2; Homo sapiens, Hepatocyte)","EC50 (SREBP-1; Homo sapiens, Hepatocyte)",EC50 (SREBP-2),EC50 (Huh7 cells; Huh7 cells),EC50 (SREBP-1),EC50 (SREBP-2; Hepatocyte),EC50 (SREBP-1; Hepatocyte)
1670 nM,"CC(=O)Nc1c(C(N)=O)cc(-c2ccc(Cl)cc2)cc1-c1ccc(S(N)(=O)=O)cc1 [HPN-01501, 4′-acetamido-4-chloro-4″-sulfamoyl-[1,1′:3′,1″-terphenyl]-5′-carboxamide]",8550 nM,5040 nM,,,,,
1140 nM,"CCCNC(=O)c1cc(-c2ccc(Br)cc2)cc(-c2ccc(S(N)(=O)=O)cc2)c1N [HPN-01604, 4′-amino-4-bromo-N-propyl-4″-sulfamoyl-[1, 1′:3′,1″-terphenyl]-5′-carboxamide]",5710 nM,1950 nM,,,,,
1200 nM,"Nc1c(C(=O)Nc2ccsc2)cc(-c2ccc(Cl)cc2)cc1-c1ccc(S(N)(=O)=O)cc1 [HPN-01627, 4′-amino-4-chloro-4″-sulfamoyl-N-(thiophen-3-yl)-[1,1′:3′,1″-terphenyl]-5′-carboxamide]",4310 nM,1950 nM,,,,,
1150 nM,"NC(=O)c1cc(-c2ccc(Cl)cc2)cc(NCc2ccc(S(N)(=O)=O)cc2)c1N [HPN-01426, 4-amino-4′-chloro-5-((4-sulfamoylbenzyl)amino)-[1,1′-biphenyl]-3-carboxamide]",9400 nM,11000 nM,,,,,
790 nM,"NC(=O)c1cc(-c2ccc(Cl)cc2)cc(-c2ccc(S(N)(=O)=O)cc2)c1NC(=O)CO [HPN-01502, 4-chloro-4′-(2-hydroxyacetamido)-4″-sulfamoyl-[1,1′:3′,1″-terphenyl]-5′-carboxamide]",2300 nM,1650 nM,,,,,
2390 nM,"CCCNC(=O)c1cc(-c2ccc(Cl)cc2)cc(-c2ccc(S(N)(=O)=O)cc2)c1N [HPN-01603, 4′-amino-4-chloro-N-propyl-4″-sulfamoyl-[1,1′:3′,1″-terphenyl]-5′-carboxamide]",9400 nM,7220 nM,,,,,
1110 nM,"NC(=O)c1cc(-c2ccc(Cl)cc2)cc(N2CCN(S(N)(=O)=O)CC2)c1N [HPN-01427, 4-amino-4′-chloro-5-(4-sulfamoylpiperazin-1-yl)-[1,1′-biphenyl]-3-carboxamide]",3830 nM,3320 nM,,,,,
1100 nM,"NC(=O)c1cc(-c2ccc(Cl)cc2)cc(-c2ccc(S(N)(=O)=O)cc2)c1NC(=O)CCO [HPN-01516, 4-chloro-4′-(3-hydroxypropanamido)-4″-sulfamoyl-[1, 1′:3′,1″-terphenyl]-5′-carboxamide]",2070 nM,1910 nM,,,,,
480 nM,"CCCCNc1c(C(N)=O)cc(-c2ccc(Cl)cc2)cc1-c1ccc(S(N)(=O)=O)cc1 [HPN-01533, 4′-(butylamino)-4-chloro-4″-sulfamoyl-[1,1′:3′,1″-terphenyl]-5′-carboxamide]",11700 nM,2830 nM,,,,,
1670 nM,"NC(=O)c1cc(-c2ccc(Cl)cc2)cc(-c2ccc(S(N)(=O)=O)cc2)c1NC(=O)c1cccnc1 [HPN-01529, N-(5′-carbamoyl-4-chloro-4″-sulfamoyl-[1,1′:3′,1″-terphenyl]-4′-yl)nicotinamide]",18800 nM,3090 nM,,,,,
1160 nM,"NS(=O)(=O)c1ccc(-c2cc(-c3ccc(Br)cc3)cc3c(=O)[nH]c(=O)[nH]c23)cc1 [HPN-01610, 4-(6-(4-bromophenyl)-2,4-dioxo-1,2,3,4-tetrahydroquinazolin-8-yl)benzene sulfonamide]",3440 nM,2000 nM,,,,,
3050 nM,"Nc1c(C(=O)NCCO)cc(-c2ccc(Cl)cc2)cc1-c1ccc(S(N)(=O)=O)cc1 [HPN-01607, 4′-amino-4-chloro-N-(2-hydroxyethyl)-4″-sulfamoyl-[1,1′:3′,1″-terphenyl]-5′-carboxamide]",12500 nM,6730 nM,,,,,

# From patent US11000491B2, “Amino-aryl-benzamide compounds and methods of use thereof” (HEPANOVA, INC., priority 2017, dated 2021)
